The source of these data is US10787432B2, “N-[(pyridyloxy)propanyl]benzamides” (Boehringer Ingelheim International GmbH, priority 2016, dated 2020).

One data set has as its target T1, human Orexin 1 receptor (Homo sapiens, UniProt O43613).
T1 construct: stably expressing the full-length human Orexin 1 receptor; expressed in transfected cells; host or cells: CHO-K1 (CHO-K1/hOX1), co-expressing aequorin
T1 sequence (O43613 1-425): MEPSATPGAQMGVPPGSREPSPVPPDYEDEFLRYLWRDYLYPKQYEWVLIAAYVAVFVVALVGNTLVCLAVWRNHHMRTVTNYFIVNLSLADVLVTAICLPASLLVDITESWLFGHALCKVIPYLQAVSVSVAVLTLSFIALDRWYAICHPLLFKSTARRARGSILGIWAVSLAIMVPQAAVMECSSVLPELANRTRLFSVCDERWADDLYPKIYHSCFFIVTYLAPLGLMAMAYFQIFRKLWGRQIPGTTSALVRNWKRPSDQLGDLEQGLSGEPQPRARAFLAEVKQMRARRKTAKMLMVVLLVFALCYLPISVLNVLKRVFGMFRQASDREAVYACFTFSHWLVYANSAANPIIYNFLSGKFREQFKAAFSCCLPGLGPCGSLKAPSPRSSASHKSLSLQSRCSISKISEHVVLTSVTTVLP
As to the kind of experiment: Assay A: In vitro testing of OX1R potency: OX1R IP1 (HTRF, CHO-K1/hOX1 cells, Orexin A as agonist). As to conditions: for Kb: read-out: OX1R Kb (Orexin A concentration used). Format: cell-based.

In another data set the target is T2, human orexin 2 receptor (Homo sapiens, UniProt O43614).
T2 construct: stably expressing the full-length human orexin 2 receptor; expressed in transfected cells; host or cells: CHO-K1 (CHO-K1/hOX2), co-expressing aequorin
T2 sequence (O43614 1-444): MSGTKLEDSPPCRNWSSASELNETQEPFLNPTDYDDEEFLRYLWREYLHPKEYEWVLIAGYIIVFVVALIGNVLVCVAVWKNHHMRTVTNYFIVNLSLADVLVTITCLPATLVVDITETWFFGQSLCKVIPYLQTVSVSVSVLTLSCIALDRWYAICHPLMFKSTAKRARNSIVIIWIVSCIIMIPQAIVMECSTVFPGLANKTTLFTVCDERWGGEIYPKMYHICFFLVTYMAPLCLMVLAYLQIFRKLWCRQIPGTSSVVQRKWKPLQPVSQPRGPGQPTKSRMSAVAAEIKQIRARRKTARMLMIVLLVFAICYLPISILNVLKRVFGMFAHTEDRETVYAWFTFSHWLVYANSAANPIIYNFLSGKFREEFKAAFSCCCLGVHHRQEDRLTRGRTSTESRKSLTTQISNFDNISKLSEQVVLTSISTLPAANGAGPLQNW
As to the kind of experiment: Assay B: In vitro testing of OX2R potency: OX2R IP1 (HTRF, CHO-K1/hOX2 cells, Orexin A as agonist). In kind it is cell-based. To be noted: Orexin A 0.5 nM. The source says:
Activation of the orexin receptors expressed in cell lines results in an increase in intracellular IP3 concentration. IP1, a downstream metabolite of IP3, accumulates in cells following receptor activation and is stable in the presence of LiCl. Using Homogeneous Time-Resolved Fluorescence technology with Lumi4-Tb cryptate (commercially available from Cisbio Bioassay.) and a suitable fluorescence plate reader. […] Chem. Genomics 2009, 3, 22-32. This technique is used to characterize pharmacological modification of the orexin receptors.
B. In Vitro Testing of OX2R Potency: OX2R IP1
IP1 measurements are performed in CHO-K1 cells stably expressing the full-length human orexin 2 receptor and the aequorin photoprotein. Cells are cultivated in Ham's nutrient mixture F12 medium with 10% fetal calf serum, in a 37° C., 95% humidity and 5% CO2 incubator. The CHO-K1/hOX2 cell mass is expanded to larger cell numbers. The cells are obtained as frozen cells in cryo-vials and stored until use at −150° C. The viability of the cells after thawing is >90%. In preparation for the assay, 24 hours before the assay, the cells are thawed at 37° C. and immediately diluted with cell culture medium. After centrifugation, the cell pellet is resuspended in medium and then distributed into the assay plates with a density of 5000 cells/25 μL per well. The plates are incubated for one hour at room temperature to reduce edge effects before they are incubated for 24 hours at 37° C./5% CO2. Compounds are prepared by a 8-point serial dilution in DMSO and a final dilution step into assay buffer (HBSS with 20 mM HEPES, 0.1% BSA and 50 mM LiCl, pH 7.4) to ensure a final DMSO concentration of 1% in the assay.
On the day of the assay, cells in the plate are washed twice with 60 μL assay buffer (20 μL buffer remained in the wells after washing), followed by adding 5 μL per well of compounds diluted in assay buffer. After 15 minutes of incubation at room temperature 5 μL per well of Orexin A peptide (final concentration: 0.5 nM) dissolved in assay buffer is added to the assay plate. The assay plate is incubated for 60 minutes at 37° C. Then 5 μL per well of Anti-IP1-Cryptate Tb solution and 5 μL per well of IP1-d2 dilution are added to all well of the plate and the plate is incubated for a further 60 minutes light protected at room temperature. The emission at 615 nm and 665 nm (Excitation wavelength: 320 nm) are measured using an EnVision reader (PerkinElmer). The ratio between the emission at 665 nm and 615 is calculated by the reader.
8-point four parametric non-linear curve fitting and determination of IC50 values and Hill slopes is performed using a regular analysis software e.g. AssayExplorer (Accelrys). In order to establish an agonist concentration independent parameter, Kb values are calculated using the following equation: IC50/((2+(A/EC50)n)^1/n−1) (with A=concentration agonist, EC50=EC50 agonist, n=Hill slope agonist) (see P. Leff, I. G. Dougall, Trends Pharmacol. Sci. 1993, 14(4), 110-112).
Kb values from Assay A (OX1R) and Assay B (OX2R) can then provide a selectivity ratio which is independent of the agonist (Orexin A) concentration.

A short description of data set [1]: Assay C: Metabolic stability in human liver microsomes (Human MST). As to conditions: pooled human liver microsomes, pH 7.6; human liver microsomes 1 mg/mL, compound 1 μM, 37° C., NADPH; read-out: Human MST t1/2. Format: in vitro ADME. How it is done: C. Assessment of Metabolic Stability in Human Liver Microsomes (Human MST)
The metabolic stability of the compounds according to the invention may be investigated as follows:
The metabolic degradation of the test compound is assayed at 37° C. with pooled human liver microsomes. The final incubation volume of 100 μL per time point contains TRIS buffer pH 7.6 at room temperature (0.1 M), MgCl2 (5 mM), microsomal protein (1 mg/mL) and the test compound at a final concentration of 1 μM. Following a short pre-incubation period at 37° C., the reactions are initiated by addition of beta-nicotinamide adenine dinucleotide phosphate, reduced form (NADPH, 1 mM), and terminated by transferring an aliquot into solvent after different time points. After centrifugation (10000 g, 5 min), an aliquot of the supernatant is assayed by LC-MS/MS for the amount of parent compound. The half-life (t1/2) is determined by the slope of the semi-logarithmic plot of the concentration-time profile.

Each structure is given as a SMILES string. Read-outs that look alike come from different tables or passages of the source.

`CCN(C(=O)c1cc(F)c(F)cc1-n1nccn1)[C@@H](C)COc1ncc(C(F)(F)F)cc1F` [Example 52]: at human Orexin 1 receptor (OX1R Kb at 0.5 nM Orexin A), the “OX2R Kb/OX1R Kb” value is given as 256. Further, the Kb at human Orexin 1 receptor (Orexin A 0.5 nM) came out at 2.1 nM; at human orexin 2 receptor, 538 nM. Also, the half-life at 1 μM in data set [1] was 38 min.
Take `CCN(C(=O)c1cc(F)cc(F)c1-n1nccn1)[C@@H](C)COc1ncc(C(F)(F)F)cc1F` [Example 54]: the “OX2R Kb/OX1R Kb” value at human Orexin 1 receptor (OX1R Kb at 0.5 nM Orexin A) amounted to 277; on human Orexin 1 receptor (OX1R Kb at 50 nM Orexin A) it was 415. Further, the Kb amounted to 0.99 nM at human Orexin 1 receptor (Orexin A 0.5 nM), 0.66 nM at human Orexin 1 receptor (Orexin A 50 nM) and 274 nM at human orexin 2 receptor. The half-life at 1 μM in data set [1] came to 87 min.
For `CCN(C(=O)c1ccc(F)cc1-c1nnc(C)o1)[C@@H](C)COc1ncc(C(F)(F)F)cc1F` [Example 55], the “OX2R Kb/OX1R Kb” value at human Orexin 1 receptor (OX1R Kb at 0.5 nM Orexin A) turned out to be 430. The Kb at human Orexin 1 receptor (Orexin A 0.5 nM) is 7.2 nM; at human orexin 2 receptor, 3100 nM. In addition, in data set [1], the half-life at 1 μM was found to be 64 min.
Take `CCN(C(=O)c1c(F)cccc1-n1nccn1)[C@@H](C)COc1ncc(C(F)(F)F)cc1F` [Example 56]: the “OX2R Kb/OX1R Kb” value on human Orexin 1 receptor (OX1R Kb at 0.5 nM Orexin A) was found to be 98; on human Orexin 1 receptor (OX1R Kb at 50 nM Orexin A), 257. Further, the Kb on human Orexin 1 receptor (Orexin A 0.5 nM) worked out at 1.1 nM; at human Orexin 1 receptor (Orexin A 50 nM) it was 0.42 nM; on human orexin 2 receptor, 108 nM. Moreover, in data set [1], the half-life at 1 μM worked out at 48 min.
With `CCN(C(=O)c1cc(C#N)ccc1-n1nccn1)[C@@H](C)COc1ncc(C(F)(F)F)cc1F` [Example 57], at human Orexin 1 receptor (OX1R Kb at 50 nM Orexin A), the “OX2R Kb/OX1R Kb” value amounted to 214. The Kb on human Orexin 1 receptor (Orexin A 50 nM) turned out to be 0.95 nM; on human orexin 2 receptor it was 203 nM. Moreover, the half-life at 1 μM in data set [1] was greater than 130 min.
As to `CCN(C(=O)c1cccc(F)c1-c1nnc(C)o1)[C@@H](C)COc1ncc(C(F)(F)F)cc1F` [Example 61], the “OX2R Kb/OX1R Kb” value on human Orexin 1 receptor (OX1R Kb at 0.5 nM Orexin A) is on record as 452. The Kb is 3.27 nM on human Orexin 1 receptor (Orexin A 0.5 nM) and 1480 nM at human orexin 2 receptor. Further, the half-life at 1 μM in data set [1] is 26 min.
`CCN(C(=O)c1cccc(C)c1-c1nnc(C)o1)[C@@H](C)COc1ncc(C(F)(F)F)cc1F` [Example 64]: the “OX2R Kb/OX1R Kb” value on human Orexin 1 receptor (OX1R Kb at 50 nM Orexin A) worked out at 705. In addition, the Kb on human Orexin 1 receptor (Orexin A 50 nM) stood at 0.22 nM; at human orexin 2 receptor, 155 nM. In addition, the half-life at 1 μM in data set [1] was 15 min.
As to `CCN(C(=O)c1ccccc1-c1nnc(C)o1)[C@@H](C)COc1ncc(C(F)(F)F)cc1F` [Example 68], the “OX2R Kb/OX1R Kb” value at human Orexin 1 receptor (OX1R Kb at 0.5 nM Orexin A) is given as 527. For the same molecule, the results for the Kb at human Orexin 1 receptor (Orexin A 0.5 nM) and on human orexin 2 receptor were 1.9 nM and 1000 nM, respectively. Further, in data set [1], the half-life at 1 μM amounted to 53 min.
For `CCN(C(=O)c1ccc(C#N)cc1-n1nccn1)[C@@H](C)COc1ncc(C(F)(F)F)cc1F` [Example 69], the “OX2R Kb/OX1R Kb” value on human Orexin 1 receptor (OX1R Kb at 0.5 nM Orexin A) is recorded as 136. The Kb is 32 nM at human Orexin 1 receptor (Orexin A 0.5 nM) and 4340 nM on human orexin 2 receptor. For the same molecule, in data set [1], the half-life at 1 μM was found to be 43 min.
